ChEMBL document CHEMBL1201862, “PubChem BioAssay data set” (2004)
Where a name gives a salt, the structure may show the parent alone. Calls of active or inactive are those of the source.

Experiments:
[1] = target: Cytochrome P450 2D6 (Homo sapiens, UniProt P10635);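 note: CYP2D6 member of a cytochrome P450 panel assay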
[2] = target: T1, Cytochrome P450 1A2 (Homo sapiens, UniProt P05177);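 note: PubChem cytochrome P450 panel assay, CYP1A2 panel member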
T1 sequence (P05177 whole entry): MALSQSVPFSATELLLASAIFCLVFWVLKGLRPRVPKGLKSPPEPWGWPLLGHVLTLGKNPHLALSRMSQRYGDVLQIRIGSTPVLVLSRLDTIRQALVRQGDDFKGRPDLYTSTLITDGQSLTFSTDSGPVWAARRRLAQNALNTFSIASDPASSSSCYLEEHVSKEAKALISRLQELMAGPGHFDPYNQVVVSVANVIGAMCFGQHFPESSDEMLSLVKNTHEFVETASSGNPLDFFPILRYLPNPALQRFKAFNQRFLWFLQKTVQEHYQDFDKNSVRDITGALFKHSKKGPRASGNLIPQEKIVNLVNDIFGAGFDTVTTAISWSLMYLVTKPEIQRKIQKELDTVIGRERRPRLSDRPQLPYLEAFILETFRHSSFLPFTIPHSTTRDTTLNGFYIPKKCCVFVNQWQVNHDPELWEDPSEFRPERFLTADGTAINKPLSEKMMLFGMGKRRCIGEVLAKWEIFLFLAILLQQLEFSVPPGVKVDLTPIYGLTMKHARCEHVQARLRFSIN

[3] = target: Cytochrome P450 2C9 (Homo sapiens, UniProt P11712)
Cytochrome P450 2C9, sequence (P11712 whole entry): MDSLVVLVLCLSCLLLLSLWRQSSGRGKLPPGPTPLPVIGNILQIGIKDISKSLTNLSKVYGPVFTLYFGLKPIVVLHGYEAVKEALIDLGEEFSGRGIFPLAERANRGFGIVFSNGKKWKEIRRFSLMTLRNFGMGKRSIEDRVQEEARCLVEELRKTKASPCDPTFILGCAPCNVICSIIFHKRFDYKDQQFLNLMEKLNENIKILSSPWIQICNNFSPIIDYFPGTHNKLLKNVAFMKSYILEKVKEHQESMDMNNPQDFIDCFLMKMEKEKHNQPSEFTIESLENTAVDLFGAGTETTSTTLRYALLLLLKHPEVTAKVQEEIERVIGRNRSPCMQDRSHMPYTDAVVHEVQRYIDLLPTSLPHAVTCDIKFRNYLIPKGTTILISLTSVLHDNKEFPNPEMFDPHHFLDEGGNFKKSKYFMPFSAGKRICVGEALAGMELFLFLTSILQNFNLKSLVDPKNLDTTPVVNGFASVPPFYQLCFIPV

[4] = target: T2, Replicative DNA helicase DnaB (Mycobacterium tuberculosis, UniProt P9WMR3); test: DnaB intein splicing inhibitors, dose response, biochemical, cell-free fluorescence (AID 449749); format: functional
T2 sequence (P9WMR3 whole entry): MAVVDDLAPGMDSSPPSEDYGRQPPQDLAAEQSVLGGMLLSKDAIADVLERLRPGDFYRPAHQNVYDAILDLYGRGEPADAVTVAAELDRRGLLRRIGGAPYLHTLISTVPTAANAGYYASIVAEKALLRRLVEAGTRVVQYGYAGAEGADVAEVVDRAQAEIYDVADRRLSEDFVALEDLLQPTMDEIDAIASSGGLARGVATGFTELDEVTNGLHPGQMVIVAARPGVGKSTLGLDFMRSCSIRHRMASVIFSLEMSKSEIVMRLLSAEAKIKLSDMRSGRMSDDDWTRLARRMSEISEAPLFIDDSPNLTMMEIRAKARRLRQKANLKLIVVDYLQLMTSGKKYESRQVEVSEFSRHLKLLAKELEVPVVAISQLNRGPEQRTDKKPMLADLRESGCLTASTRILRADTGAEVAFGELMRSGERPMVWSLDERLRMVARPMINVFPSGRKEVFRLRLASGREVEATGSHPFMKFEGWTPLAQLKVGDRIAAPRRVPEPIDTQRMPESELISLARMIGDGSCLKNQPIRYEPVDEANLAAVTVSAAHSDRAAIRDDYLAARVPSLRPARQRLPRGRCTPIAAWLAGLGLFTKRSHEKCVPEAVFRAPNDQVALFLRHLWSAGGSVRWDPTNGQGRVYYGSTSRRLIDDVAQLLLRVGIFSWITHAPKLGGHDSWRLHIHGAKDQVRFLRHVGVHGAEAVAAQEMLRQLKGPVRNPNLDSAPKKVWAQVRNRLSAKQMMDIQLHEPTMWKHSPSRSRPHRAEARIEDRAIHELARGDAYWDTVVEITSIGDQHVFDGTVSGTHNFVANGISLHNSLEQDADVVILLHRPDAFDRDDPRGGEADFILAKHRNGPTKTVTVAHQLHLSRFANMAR

[5] = target: T3, Protein RecA (Mycobacterium tuberculosis, UniProt P9WHJ3); test: Fluorescence Cell-Free Homogeneous Dose Retest to Identify Inhibitors of RecA-Intein Splicing Activity. [Related pubchem assays (depositor defined):AID2097, AID2223, AID489010, AID492950]; format: functional
T3 sequence (P9WHJ3 whole entry): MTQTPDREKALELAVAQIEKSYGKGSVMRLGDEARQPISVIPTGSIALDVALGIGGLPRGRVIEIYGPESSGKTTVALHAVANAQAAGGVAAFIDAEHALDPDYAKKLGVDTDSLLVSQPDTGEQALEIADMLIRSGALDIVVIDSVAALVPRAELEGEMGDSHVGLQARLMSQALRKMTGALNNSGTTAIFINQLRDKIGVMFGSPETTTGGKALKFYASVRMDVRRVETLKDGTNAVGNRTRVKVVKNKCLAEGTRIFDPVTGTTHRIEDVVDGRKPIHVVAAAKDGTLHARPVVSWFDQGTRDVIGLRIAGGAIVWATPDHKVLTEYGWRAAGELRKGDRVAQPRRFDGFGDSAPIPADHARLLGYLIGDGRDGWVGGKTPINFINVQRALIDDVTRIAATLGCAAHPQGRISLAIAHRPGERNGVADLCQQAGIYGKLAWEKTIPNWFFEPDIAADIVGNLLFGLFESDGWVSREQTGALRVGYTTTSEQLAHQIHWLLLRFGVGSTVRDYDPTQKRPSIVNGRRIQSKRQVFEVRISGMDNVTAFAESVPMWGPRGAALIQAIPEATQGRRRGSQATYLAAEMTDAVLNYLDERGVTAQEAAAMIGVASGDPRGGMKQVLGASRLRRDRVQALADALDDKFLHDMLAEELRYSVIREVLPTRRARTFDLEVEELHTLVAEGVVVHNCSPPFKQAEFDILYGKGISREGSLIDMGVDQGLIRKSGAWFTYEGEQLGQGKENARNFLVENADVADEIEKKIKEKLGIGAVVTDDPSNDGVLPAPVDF

[6] = target: T4, Corticotropin-releasing factor receptor 2/Corticotropin-releasing factor-binding protein (Homo sapiens, UniProt P24387+Q13324); test: Dose Response confirmation of uHTS hits for small molecule antagonists of the CRF-binding protein and CRF-R2 receptor complex.; format: functional; conditions: read-out: IC50_Mean
T4 sequence (Q13324 whole entry): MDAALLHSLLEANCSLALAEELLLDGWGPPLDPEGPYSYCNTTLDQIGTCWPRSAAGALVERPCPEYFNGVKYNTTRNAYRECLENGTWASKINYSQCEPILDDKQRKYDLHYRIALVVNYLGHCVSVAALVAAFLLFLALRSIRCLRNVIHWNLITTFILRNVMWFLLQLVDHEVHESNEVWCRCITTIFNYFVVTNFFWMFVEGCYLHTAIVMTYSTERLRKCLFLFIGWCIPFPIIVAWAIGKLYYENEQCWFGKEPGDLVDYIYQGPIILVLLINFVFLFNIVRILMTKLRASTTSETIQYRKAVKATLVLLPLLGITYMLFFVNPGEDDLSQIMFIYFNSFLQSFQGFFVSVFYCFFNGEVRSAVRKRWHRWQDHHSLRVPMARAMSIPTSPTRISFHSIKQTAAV
T4 sequence (P24387 whole entry): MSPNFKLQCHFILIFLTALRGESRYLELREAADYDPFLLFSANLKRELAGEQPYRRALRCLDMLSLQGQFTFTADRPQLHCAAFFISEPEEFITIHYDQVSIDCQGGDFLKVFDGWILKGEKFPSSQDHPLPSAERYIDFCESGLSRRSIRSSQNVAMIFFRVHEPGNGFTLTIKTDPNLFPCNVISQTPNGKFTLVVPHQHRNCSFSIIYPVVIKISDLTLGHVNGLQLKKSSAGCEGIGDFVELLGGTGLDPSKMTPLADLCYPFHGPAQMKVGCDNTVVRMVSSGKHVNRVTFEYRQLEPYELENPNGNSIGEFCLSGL

[7] = target: T4, Corticotropin-releasing factor receptor 2/Corticotropin-releasing factor-binding protein; test: activators of CRF receptor 2 with binding protein – uHTS hits, confirmation (AID 602473); format: functional; conditions: read-out: EC50_Mean
[8] = target: Cytochrome P450 2C19 (Homo sapiens, UniProt P33261); test: Cytochrome panel assay with activity outcomes. Panel member name: p450-cyp2c19 Compounds with AC50 equal or less than 10 uM are considered active; format: functional; conditions: read-out: AC50
Cytochrome P450 2C19, sequence (P33261 whole entry): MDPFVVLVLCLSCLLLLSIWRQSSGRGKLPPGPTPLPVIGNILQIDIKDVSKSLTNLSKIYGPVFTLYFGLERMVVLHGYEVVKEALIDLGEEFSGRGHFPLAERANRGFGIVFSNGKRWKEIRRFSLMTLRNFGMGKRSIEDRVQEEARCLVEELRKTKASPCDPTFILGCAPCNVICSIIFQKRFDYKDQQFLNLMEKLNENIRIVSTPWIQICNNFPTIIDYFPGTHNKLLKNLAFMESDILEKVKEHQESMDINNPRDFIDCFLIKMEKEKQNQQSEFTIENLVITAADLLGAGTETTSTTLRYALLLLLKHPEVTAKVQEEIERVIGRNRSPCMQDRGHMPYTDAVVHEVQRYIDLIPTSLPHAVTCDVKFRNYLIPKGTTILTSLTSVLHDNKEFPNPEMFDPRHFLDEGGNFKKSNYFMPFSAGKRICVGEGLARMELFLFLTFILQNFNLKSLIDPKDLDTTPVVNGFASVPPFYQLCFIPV

[9] = cells; format: functional
[10] = target: Cytochrome P450 3A4 (Homo sapiens, UniProt P08684);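 note: CYP3A4 tested as one member of a cytochrome P450 panel screen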
Cytochrome P450 3A4, sequence (P08684 whole entry): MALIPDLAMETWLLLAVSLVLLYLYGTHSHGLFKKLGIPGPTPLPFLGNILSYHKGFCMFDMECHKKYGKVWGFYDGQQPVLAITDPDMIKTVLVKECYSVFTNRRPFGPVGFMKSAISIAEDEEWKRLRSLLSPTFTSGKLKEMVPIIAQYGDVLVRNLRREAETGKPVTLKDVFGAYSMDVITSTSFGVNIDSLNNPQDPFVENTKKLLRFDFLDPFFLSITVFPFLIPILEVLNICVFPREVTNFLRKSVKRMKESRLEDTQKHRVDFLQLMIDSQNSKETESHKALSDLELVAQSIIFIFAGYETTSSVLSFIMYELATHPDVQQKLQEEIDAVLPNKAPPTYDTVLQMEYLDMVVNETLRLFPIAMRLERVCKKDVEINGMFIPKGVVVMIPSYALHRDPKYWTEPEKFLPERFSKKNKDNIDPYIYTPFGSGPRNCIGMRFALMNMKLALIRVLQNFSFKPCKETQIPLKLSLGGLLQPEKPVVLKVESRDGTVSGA

[11] = system: Streptococcus sp. 'group A'; test: growth inhibition of control SK(-) GAS strain, dose response, counter-screen for streptokinase expression inhibitor project, luminescence, kanamycin, BacTiterGlo, confirmation (AID 1900); format: functional, organism-based
[12] = system: Streptococcus; test: Group A Streptococcus viability loss, dose response, counter-screen for streptokinase expression inhibitor project, luminescence, BacTiterGlo (AID 1915); format: functional, organism-based;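 note: potency for reduction of bacterial viability or growth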

Cytochrome P450 2D6, sequence (P10635 whole entry): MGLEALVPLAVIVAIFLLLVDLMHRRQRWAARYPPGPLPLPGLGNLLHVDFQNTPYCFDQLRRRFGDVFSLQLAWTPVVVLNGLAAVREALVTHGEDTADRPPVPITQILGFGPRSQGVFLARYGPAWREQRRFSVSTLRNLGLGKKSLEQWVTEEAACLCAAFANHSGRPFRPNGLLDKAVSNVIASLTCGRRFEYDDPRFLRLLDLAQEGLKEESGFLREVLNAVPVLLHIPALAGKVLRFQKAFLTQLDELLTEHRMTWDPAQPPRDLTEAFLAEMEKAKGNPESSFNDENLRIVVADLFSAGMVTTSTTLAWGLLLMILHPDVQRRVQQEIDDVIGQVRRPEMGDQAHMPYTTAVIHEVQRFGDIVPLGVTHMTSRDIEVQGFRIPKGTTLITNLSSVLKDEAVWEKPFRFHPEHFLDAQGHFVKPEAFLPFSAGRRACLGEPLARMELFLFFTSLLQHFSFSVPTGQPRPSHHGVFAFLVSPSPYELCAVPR

For CCCCCCCCCCCCC(=O)N1CCCC[C@H]1CNC(=O)[C@@H](N)CCCCN, the AC50 [1] was 25.1 µM (inconclusive), the AC50 [2] was 31.6 µM (inconclusive) and the AC50 [3] was 10 µM (inconclusive).

In the case of COc1ccc(CNC(=O)C(c2ccc(C)o2)N(C(=O)c2snc(C(N)=O)c2N)c2ccccc2OC)cc1 (centres undefined), the AC50 [4] is reported as > 380 µM (inactive) and the EC50 [5] is reported as > 380 µM (inactive).

With Cc1cc(NC(=O)Cc2ccccc2)ccc1NC(=O)c1cccs1 the IC50 [6] was > 47.1 µM (inactive) and the EC50 [7] was > 53 µM (inactive).

For CN1CCc2cccc(Cl)c2CC1, the AC50 [1] was 31.6 µM (inconclusive).

For O=C(O)[C@@H]1C[C@@H](C(=O)O)N1, the AC50 [1] was 39.8 µM (inconclusive).

For CCOc1ccc(C2C(C(=O)O)c3ccccc3C(=O)N2CCN2CCOCC2)cc1 (centres undefined), the AC50 [1] was 25.1 µM (inconclusive).

For Cc1cccc(CNc2ccnc(-c3cccc(C#N)c3)n2)c1, the AC50 [1] was 25.1 µM (inconclusive) and the AC50 [3] was 0.794 µM (inconclusive).

In the case of C/C(=N\NC(=O)CC#N)c1cc2ccccc2oc1=O, the AC50 [4] is reported as 3.44 µM (active) and the EC50 [5] is reported as 2.97 µM (active).

For CCOc1cccc(NC(=O)CSc2nc(C)c3c(c2C#N)CCCC3)c1, the AC50 [8] was 0.178 µM (inconclusive) and the AC50 [1] was 0.0794 µM (inconclusive).

With O=C(NCCc1ccccc1)c1cnc2ccccc2c1O the EC50 [7] was > 53 µM (inactive).

With CCOc1c(C)cc(-c2ncccc2O)cc1C the IC50 [6] was > 47.1 µM (inactive) and the EC50 [7] was > 53 µM (inactive).

With CCCc1n[nH]c2c1C(CCC)C(C#N)=C(N)O2 (centres undefined) the AC50 [4] was 20.5 µM (active) and the EC50 [5] was 7.46 µM (active).

With CC(Nc1ccc(Br)cc1)C(=O)Nc1cccc(S(=O)(=O)N2CCOCC2)c1 (centres undefined) the IC50 [6] was > 47.1 µM (inactive) and the EC50 [7] was > 53 µM (inactive).

For Cc1cc(C(=O)COc2cccc3cccnc23)c(C)n1C, the IC50 [9] was 6.66 µM (active) and the EC50 [7] was > 53 µM (inactive).

With O=C(O)C1=CCCNC1 [GUVACINE HYDROCHLORIDE] the IC50 [6] was > 47.1 µM (inactive) and the EC50 [7] was > 53 µM (inactive).

In the case of CCCCCCCCCOc1ccc2[nH]cc(CCN)c2c1, the AC50 [1] is reported as 25.1 µM (inconclusive), the AC50 [10] is reported as 39.8 µM (inconclusive) and the AC50 [3] is reported as 25.1 µM (inconclusive).

With COc1cccc(-c2cncnc2NCc2cccnc2)c1 the AC50 [1] was 20 µM (inconclusive).

For COc1cc(/C=N\NC(=O)c2ccccc2F)ccc1Oc1ccc([N+](=O)[O-])cn1, the AC50 [4] was 133 µM (active) and the EC50 [5] was > 380 µM (inactive).

For O=C(c1n[nH]c(=O)c2ccccc12)N1CCN(C2c3ccccc3-c3ccccc32)CC1, the AC50 [1] was 31.6 µM (inconclusive).

For O=C(Oc1ccccc1C(=O)Nc1ccccc1)c1ccccc1Br, the AC50 [4] was 7.25 µM (active) and the EC50 [5] was 8.13 µM (active).

In the case of N#C/C(=C\c1c[nH]c2ccccc12)C(=O)c1ccc(O)c(O)c1, the AC50 [8] is reported as 31.6 µM (inconclusive), the AC50 [1] is reported as 25.1 µM (inconclusive) and the AC50 [3] is reported as 31.6 µM (inconclusive).

For Cc1cc(-c2ccc(/C=N/n3cnnc3)o2)c([N+](=O)[O-])cc1C, the AC50 [1] was 11.2 µM (inconclusive).

For Cc1nnc(SC(C(=O)Nc2cc(Cl)cc(Cl)c2)c2ccccc2)nc1O (centres undefined), the EC50 [11] was 10.6 µM (active) and the EC50 [12] was > 150 µM (not active).

With C[C@@H](C(=O)O)c1ccc(C(=O)c2ccccc2)s1 the AC50 [1] was 7.94 µM (inconclusive), the AC50 [2] was 0.251 µM (inconclusive) and the AC50 [10] was 12.6 µM (inconclusive). For the same compound, the AC50 [3] was 15.8 µM (inconclusive).

With Fc1ccc(Br)cc1C1C=C(c2ccc(Br)cc2)Nc2ncnn21 (centres undefined) the EC50 [7] was > 53 µM (inactive).

With Cc1cnc(CNc2nc(-c3ccccc3C(F)(F)F)nc3ccccc23)cn1 the AC50 [8] was 39.8 µM (inconclusive) and the AC50 [1] was 25.1 µM (inconclusive).

For Cc1nnc(N/N=C/c2cccc(OCc3ccc(Cl)c(Cl)c3)c2)n1N, the IC50 [9] was 5.42 µM (active), the AC50 [4] was 8.86 µM (active) and the EC50 [5] was 4.81 µM (active).

In the case of FC(F)(F)c1ccccc1-c1nc(NCCN2CCOCC2)c2ccccc2n1, the AC50 [1] is reported as 31.6 µM (inconclusive).

For Clc1ccccc1-c1nc(NCCN2CCOCC2)c2ccccc2n1, the AC50 [8] was 25.1 µM (inconclusive) and the AC50 [1] was 20 µM (inconclusive).

In the case of CN(C)C(=O)c1ccc(-c2nccc(NCc3cccs3)n2)cc1, the AC50 [8] is reported as 20 µM (inconclusive) and the AC50 [1] is reported as 20 µM (inconclusive).

With Cc1cc(C)c2c(-n3cccc3)nn(CC#N)c2n1 the AC50 [1] was 10 µM (inconclusive), the AC50 [10] was 15.8 µM (inconclusive) and the AC50 [3] was 14.1 µM (inconclusive).

With O=C(c1cc(C(F)(F)F)cc(C(F)(F)F)c1)N1CCC2(CCCN(c3ncccn3)C2)CC1 the AC50 [8] was 20 µM (inconclusive), the AC50 [1] was 10 µM (inconclusive) and the AC50 [2] was 31.6 µM (inconclusive). For the same compound, the AC50 [10] was 15.8 µM (inconclusive).
